In US12714681B2, “Packaged, sealed container system for stable storage of an oxygen sensitive pharmaceutical formulation” (Baxter International Inc., priority 2020, dated 2026):

Assays:
various receptors = conditions: R-isomer compared with S-isomer; cited from earlier work
[1] = cited from earlier work
[2] = Exploration of parameters: stability of norepinephrine formulations in 0.9% sodium chloride pre and post terminal sterilization; format: physicochemical
Procedure: Formulation parameters, such as antioxidant concentration and solution pH, were evaluated. Lab-scale batches were prepared and filled into containers through cut corners (resealed). Containers were subsequently vacuum sealed into overpouches. All formulations were prepared in 0.9% sodium chloride. Oxygen levels were controlled by preparing samples within a glove box under N2 atmosphere. Replicates were tested pre and post sterilization. Runs were evaluated by O2 content (head space and solution), pH, concentration of analyte and related compounds, enantiomeric purity, amount of antioxidant, and “visual inspection.”
Nineteen formulations were prepared in accordance with the table above.

Compound	affinity to various receptors / pharmaceutical activity (various receptors)	solubility in acidic solutions ([1]; acidic solutions)	solubility in alcohols and ethers ([1]; alcohols and ethers)	solubility in water ([1]; water)	rate of epimerization to the S-isomer ([2]; higher pH values)	rate of norepinephrine oxidation ([2]; lower pH values)
NC[C@H](O)c1ccc(O)c(O)c1 (single isomer, unassigned) [R-isomer]	higher affinity	–	–	–	–	–
NC[C@@H](O)c1ccc(O)c(O)c1 (single isomer, unassigned) [S-isomer]	negligible pharmaceutical activity	–	–	–	–	–
NC[C@H](O)c1ccc(O)c(O)c1 [norepinephrine]	–	readily soluble	slightly soluble	sparingly soluble	decreased the rate of epimerization to the S-isomer	decreased the rate of norepinephrine oxidation
